Data on one compound can be found in US20160220567A1, “COMPOSITION FOR TREATING OR PREVENTING BONE DISEASES, COMPRISING HALOFUGINONE AS ACTIVE INGREDIENT” (THE CATHOLIC UNIVERSITY OF KOREA INDUSTRY-ACADEMIC …, priority 2013, published 2016).

Experiment [1] concerns murine bone marrow cells differentiating into osteoclasts. Put plainly: Murine bone marrow cell osteoclast differentiation (M-CSF, RANKL): TRAP staining and real-time PCR. Format: cell-based, mouse. The following applies: 5 days. How it is done:
For test animals, 6 to 7-week old male DBA-1 mice were used. […] Bone marrow cells were isolated from the tibia and the femur of mice, and the RBC of the isolated bone marrow cells were lysed, inoculated into a 24-well plate after diluting in 10% Minimum α-MEM to a concentration of 2 ? 10^5 cells/well, and cultured for 12 hours. The adherent cells were removed, stimulated with a macrophage-colony stimulating factor (M-CSF) and cultured for 3 days, and treated with M-CSF (10 ng/mL), receptor activator of NF-κB ligand (RANKL; 50 ng/mL), and halofuginone and cultured for 2 days. The medium was replaced in 2 days, retreated in the same manner, and cultured for 2 days.
Murine bone marrow cells were differentiated for 5 days by stimulating with M-CSF, RANKL, and halofuginone and subjected to TRAP staining according to the method described in Example <1-8> to confirm the number of TRAP positive cells. Additionally, the expression of c-Fos, JunB, and Jpd2 in the bone marrow cells were confirmed by real-time PCR according to the method described in Example <1-6>.
A general note: Quantitative PCR measures a nucleic acid by following its amplification.

In a further experiment the test system is IL-17 and Foxp3 genes. Put plainly: Expression of IL-17 and Foxp3 genes in splenocytes and draining lymph nodes by RT-PCR. Format: in vivo, mouse. The following applies: mRNA, splenocytes and draining lymph nodes of CIA mice, FIG. 2C. How it is done: For the construction of a mouse model with collagen-induced arthritis (hereinafter, referred to as “CIA”), a 6-week old male DBA/1J mouse was subjected to primary immunization by intradermal injection after mixing the bovine type II collagen (hereinafter, referred to as “CII”) and complete Freud's adjuvant (CFA) in an amount of 100 μL, respectively. After a week thereafter, halofuginone was injected intraperitoneally at 3 day intervals at a concentration of 100 μg/kg and 500 μg/kg, respectively (9 weeks).
To examine the effect of halofuginone treatment in an animal model, the RNA in the splenocytes and draining lymph nodes were extracted using the Trizol reagent, and the expression of IL-17and Foxp3 genes was confirmed by RT-PCR.
The real-time PCR was performed using the LightCycler 2.0 System Instrument and the reaction compounds were prepared by mixing 1 μL of each cDNA, 10 μL of premix Ex Taq as an enzyme for the initiation, and each primer pair to a final volume of 20 μL using distilled water. […] The values of cycle threshold (Ct) were analyzed and the amount of mRNA expression for each target was indicated in terms of the amount of beta-actin mRNA expression and the relative quantity. […]

A further experiment has as its system Rcan3 and Sox6. Nature of the experiment: Expression of Rcan3 and Sox6 in joint tissue of CII-immunized DBA/1J mice by immunohistochemical staining. Format: in vivo, mouse. The following applies: 500 μg/kg intraperitoneally, 50 days, vs untreated group, FIG. 7. The source says:
Furthermore, to examine whether the halofuginone compound of the present invention can promote the differentiation and the activity of osteoblasts, the present inventors performed the following experiment for the purpose of confirming the effect of the halofuginone compound on the expression and the activity of Rcan3 and Sox6, which are factors associated with the differentiation of osteoblasts. Specifically, the DBA/1J mice were subjected to the primary immunization by intradermally injecting bovine type II collagen (hereinafter, “CII”) in an amount of 100 μL, and one week thereafter, injected intraperitoneally with halofuginone (500 μg/kg). Fifty days thereafter, the mice were sacrificed, and the expression levels of Rcan3 and Sox6 in the joint tissue of the mice were confirmed via immunohistochemical staining method. The group of mice not treated with halofuginone was used as the control group.
The immunohistochemical staining method was performed as follows. The joints of the mice group used above were collected, fixed with 10% neutral buffered formalin, the bones were decalcified with Calci-Clear Rapid bone decalcifier and embedded in paraffin, the joint tissue was prepared into 7 μm-thick slices and attached to slides. […]

Take `O=C(C[C@H]1NCCC[C@@H]1O)Cn1cnc2cc(Br)c(Cl)cc2c1=O` (racemic) [halofuginone]: in experiment [1] (FIG. 5C), the “mRNA expression of Jpd2” value is listed as “inhibits”, the “mRNA expression of JunB” value was “inhibits” and the “mRNA expression of c-Fos” value is on record as “inhibits”. Also, the “expression of factors associated with the differentiation of osteoclasts” value in experiment [1] (TRAP staining, FIG. 5A) is “inhibits”. Besides, in the experiment with IL-17 and Foxp3 genes, the “expression of Foxp3” value is recorded as “increased” and the “expression of IL-17” value is on record as “decreased”. Further, in the experiment with Rcan3 and Sox6, the “expression of Rcan3” value is reported as “significant increase” and the “expression of Sox6” value is “significant increase”.
